The record followed here is ChEMBL document CHEMBL1140928, “Glycolipids and benzylammonium lipids as novel antisepsis agents: synthesis and biological characterization” (J Med Chem, 2009).

The source made the active and inactive calls. The calls are words filed in the database; no cut-off is given here.

The test system of series [1] is Mus musculus. As to the kind of experiment: Antisepsis activity in LPS-induced ip dosed C57BL/6J mouse lethal endotoxin shock model assessed as survival after 4 days administered 30 before LPS challenge. The format is functional.
Series [2] is described as follows: Inhibition of lipid A-induced TLR4 activation in HEK-Blue-4 cells assessed as inhibition of alkaline phosphatase activity at 10 uM by spectrophotometry. The format is cell-based.
The nature of series [3]: Inhibition of lipid A-mediated TLR4 activation in HEK-Blue-4 cells assessed as inhibition of alkaline phosphatase activity by spectrophotometry. In kind it is cell-based.
Series [4] deals with Intestinal-type alkaline phosphatase (Homo sapiens) (UniProt P09923). The series can be described thus: Inhibition of intestinal alkaline phosphatase in lipid A-stimulated HEK-Blue-4 cells at 10 uM.
Chain of Intestinal-type alkaline phosphatase (Homo sapiens) (P09923 20-503 limits assumed): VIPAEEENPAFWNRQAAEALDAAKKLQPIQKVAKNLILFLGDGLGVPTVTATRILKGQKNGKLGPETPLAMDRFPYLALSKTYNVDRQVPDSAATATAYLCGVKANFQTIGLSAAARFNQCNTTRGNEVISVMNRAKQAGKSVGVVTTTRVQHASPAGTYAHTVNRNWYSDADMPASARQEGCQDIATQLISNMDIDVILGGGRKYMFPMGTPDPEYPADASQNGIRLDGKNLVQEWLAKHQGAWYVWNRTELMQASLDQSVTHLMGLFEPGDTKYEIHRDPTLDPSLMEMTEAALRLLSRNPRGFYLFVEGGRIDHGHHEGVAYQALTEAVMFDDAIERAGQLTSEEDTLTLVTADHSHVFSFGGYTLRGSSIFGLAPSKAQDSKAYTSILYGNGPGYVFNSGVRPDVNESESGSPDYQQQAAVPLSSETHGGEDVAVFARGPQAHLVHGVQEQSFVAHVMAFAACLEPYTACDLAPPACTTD
Series [5] is described as follows: Cytotoxicity against HEK-Blue-4 cells assessed as diminution of cell viability by Cell-Titre Blue assay. In kind it is cell-based. The conditions noted are these: human.
In series [6] the target is Intestinal-type alkaline phosphatase (Bos taurus) (UniProt P19111). As to the kind of experiment: Inhibition of calf recombinant intestinal alkaline phosphatase at 10 uM.
Chain of Intestinal-type alkaline phosphatase (Bos taurus) (P19111 20-506 limits assumed): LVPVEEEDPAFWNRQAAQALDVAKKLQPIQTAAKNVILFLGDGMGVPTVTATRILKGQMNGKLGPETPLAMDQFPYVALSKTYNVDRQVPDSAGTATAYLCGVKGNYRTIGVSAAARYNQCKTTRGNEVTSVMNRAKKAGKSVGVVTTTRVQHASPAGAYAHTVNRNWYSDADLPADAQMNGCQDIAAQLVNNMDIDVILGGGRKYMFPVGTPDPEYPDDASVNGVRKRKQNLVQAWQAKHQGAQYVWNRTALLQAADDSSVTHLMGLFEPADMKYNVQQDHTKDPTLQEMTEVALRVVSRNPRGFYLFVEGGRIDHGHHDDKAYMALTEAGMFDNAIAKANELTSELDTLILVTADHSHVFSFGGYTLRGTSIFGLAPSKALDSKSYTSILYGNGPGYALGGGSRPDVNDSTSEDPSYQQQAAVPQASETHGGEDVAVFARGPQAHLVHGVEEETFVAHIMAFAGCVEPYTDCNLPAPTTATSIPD
The species named for series [7] is Homo sapiens. As to the kind of experiment: Inhibition of TNF-alpha-induced alkaline phosphatase activity in HEK-Blue-4 cells at 10 uM by spectrophotometry. In kind it is functional, cell-based.
The subject of series [8] is Mus musculus. The series can be described thus: Antisepsis activity in LPS-induced C57BL/6J mouse lethal endotoxin shock model assessed as survival after 4 days at 10 mg/kg, ip administered 30 before LPS challenge. The format is functional. Particulars: for survival at 10 mg/kg: 96 h, route intraperitoneal.
The subject of series [9] is Mus musculus. As to the kind of experiment: Antisepsis activity in LPS-induced C57BL/6J mouse lethal endotoxin shock model assessed as survival after 4 days at 3 mg/kg, ip administered 30 before LPS challenge. Particulars: 96 h, route intraperitoneal. In kind it is functional.
A short description of series [10]: Cytotoxicity against HEK-Blue-4 cells assessed as effect on cell viability by Cell-Titre Blue assay. The format is cell-based. Particulars: human.

With `CCCCCCCCCCCCCCO[C@H]1[C@@H](OC)O[C@H](CNC2CCCC2)[C@@H](O)[C@@H]1OCCCCCCCCCCCCCC`, the result in series [1] was inactive. The inhibition – broadly, the change of the read-out against control, counted positive when it falls – in series [2] stood at 23%. Further, the IC50 (commonly the concentration needed to halve the response being measured) in series [3] is above 10 µM.
For `CCCCCCCCCCCCCCOc1ccc(C[N+](C)(C)C2CCCC2)cc1OCCCCCCCCCCCCCC.[I-]`, the result in series [4], in series [6] and in series [7] was inactive. The Activity in series [5] was 13%; in [2], “Dose-dependent effect”. Moreover, the half-maximal inhibitory concentration (IC50) in series [3] came out at 1.68 µM. In addition, in [8], the survival at 10 mg/kg is 67%.
As to `CCOC(=O)C1=CCCC[C@H]1S(=O)(=O)Nc1ccc(F)cc1Cl` [RESATORVID], in series [1] (96 h), the ED50 (commonly the midpoint of the dose-response relation) amounted to 0.3 mg/kg.
For the molecule `CCCCCCCCCCCCCCO[C@H]1[C@@H](OC)O[C@H](COC2CCCC2)[C@@H](O)[C@@H]1OCCCCCCCCCCCCCC`, in series [3], the IC50 was above 10 µM.
Turning to `CCCCCCCCCCCCCCO[C@H]1[C@@H](OC)O[C@H](CNOC)[C@@H](O)[C@@H]1OCCCCCCCCCCCCCC`, the concentration for half-maximal inhibition (IC50) in series [3] is above 10 µM.
On to `CCCCCCCCCCCCCCO[C@H]1[C@@H](OC)O[C@H](CN)[C@@H](O)[C@@H]1OCCCCCCCCCCCCCC`, for which the outcome in [4], in series [6] and in series [7] was inactive. Also, the survival at 3 mg/kg in series [9] was 100%. For the same molecule, the Activity entry in series [2] was “Dose-dependent effect”; in [10] it was “Non-toxic”. The IC50 in series [3] was determined as 5.49 µM. The result in series [8] was Active.
`CCCCCCCCCCCCCCO[C@H]1[C@@H](OC)O[C@H](CNC(=O)C2CCCN2)[C@@H](O)[C@@H]1OCCCCCCCCCCCCCC` (some centres not stated): the Activity entry in series [2] is “Dose-dependent effect”; in series [10], “Non-toxic”. For the same molecule, the IC50 in series [3] amounted to 5.87 µM. Besides, the result in series [6] was inactive.
Turning to `CCCCCCCCCCCCCCO[C@H]1[C@@H](OC)O[C@H](C[N+](C)(C)C2CCCC2)[C@@H](O)[C@@H]1OCCCCCCCCCCCCCC.[I-]`, the result in [4], in [6] and in [7] was inactive. For the same molecule, the Activity entry in [2] was “Dose-dependent effect”; in series [10], “Non-toxic”. Besides, the IC50 in [3] was determined as 5.01 µM. In addition, in series [8], the survival at 10 mg/kg is 25%.
